The source of these data is ChEMBL document CHEMBL4406824, “Phenolic N-monosubstituted carbamates: Antitubercular and toxicity evaluation of multi-targeting compounds” (Eur J Med Chem, 2019).

Series [1] concerns HepG2. As to the kind of experiment: Cytotoxicity against human HepG2 cells assessed as reduction in cell viability after overnight incubation by MTT assay. Type of series: cell-based. In general terms: Formazan colour is commonly taken as a measure of viable cells.
A short description of series [2]: in vitro. The following applies: human, HepG2 cells.
Description: Selectivity index, ratio of IC50 for human HepG2 cells to MIC for antimycobacterial activity against Mycobacterium tuberculosis H37Rv
Series [3] concerns Mycobacterium kansasii. Kind of series: Potency index, ratio of p-aminosalicylic acid MIC to compound MIC for antimycobacterial activity against Mycobacterium kansasii 6509/96. Type of series: functional.
For series [4], the system named is Mycobacterium kansasii. As to the kind of experiment: Antimycobacterial activity against Mycobacterium kansasii 235/80 after 14 days. The class given is functional. The note with it: 235/80, 336 h.
The subject of series [5] is Mycobacterium kansasii. As to the kind of experiment: Antimycobacterial activity against Mycobacterium kansasii 6509/96 after 14 days. The class given is functional. The note with it: 6509/96, 336 h.
For series [6], the system named is Mycobacterium kansasii. Kind of series: Antimycobacterial activity against Mycobacterium kansasii 6509/96 after 21 days. Type of series: functional. The following applies: 6509/96, 504 h.
In series [7] the test system is Mycobacterium kansasii. As to the kind of experiment: Antimycobacterial activity against Mycobacterium kansasii 235/80 after 21 days. The class given is functional. The note with it: 235/80, 504 h.
Series [8] deals with Mycobacterium kansasii. As to the kind of experiment: Antimycobacterial activity against Mycobacterium kansasii 235/80 after 7 days. The class given is functional. The note with it: 235/80, 168 h.
In series [9] the test system is Mycobacterium tuberculosis H37Rv. As to the kind of experiment: Inhibition of recombinant Mycobacterium tuberculosis H37Rv ICL1 expressed in Escherichia coli BL21 (DE3) cells at 10 uM using (+)-potassium Ds-threo-isocitrate as substrate by glyoxylate phenyl hydrazone formation assay relative to control.
In series [10] the test system is Mycolicibacterium smegmatis. Kind of series: Antimycobacterial activity against Mycobacterium smegmatis DSM 43465 after 120 hr by resazurin dye based microdilution method. Type of series: functional. The note with it: DSM 43465, 120 h. (Resazurin is reduced to fluorescent resorufin, in cell work by metabolically active cells.)
Series [11] deals with Mycobacterium kansasii. Kind of series: Antimycobacterial activity against Mycobacterium kansasii 6509/96 after 7 days. The class given is functional. The note with it: 6509/96, 168 h.
Series [12] concerns Mycobacterium kansasii. As to the kind of experiment: Potency index, ratio of p-aminosalicylic acid MIC to compound MIC for antimycobacterial activity against Mycobacterium kansasii 235/80. Type of series: functional.
Series [13] deals with Mycobacterium tuberculosis. Type of series: functional. The following applies: H37Rv 331/88, 504 h.
Series [14] concerns Mycobacterium avium. Kind of series: Antimycobacterial activity against Mycobacterium avium 330/88 after 14 days. Type of series: functional. The following applies: 330/88, 336 h.
Series [15] deals with Mycobacterium tuberculosis. Kind of series: Antimycobacterial activity against Mycobacterium tuberculosis H37Ra ITM-M006710 after 48 hr by resazurin dye based microdilution method. The note with it: H37Ra ITM-M006710, 48 h. Type of series: functional.
Series [16] concerns Mycobacterium avium. Kind of series: Antimycobacterial activity against Mycobacterium avium 330/88 after 21 days. The note with it: 330/88, 504 h. Type of series: functional.
Series [17] deals with Mycobacterium tuberculosis. The class given is functional, H37Rv 331/88. Set-up: reference not given here.
Series [18] concerns Mycolicibacterium aurum. Kind of series: Antimycobacterial activity against Mycobacterium aurum DSM 43999 after 72 hr by resazurin dye based microdilution method. The class given is functional. The following applies: DSM 43999, 72 h.
Series [19] concerns HepG2. As to the kind of experiment: Cytostatic activity against human HepG2 cells preincubated for overnight in serum free medium followed by compound wash out and further incubated for 72 hrs in presence of serum by MTT assay. The class given is ADME, cell-based.
In series [20] the test system is Mycobacterium tuberculosis. Type of series: functional. The following applies: H37Rv 331/88, 336 h.

Converted amounts (≈) assume the structure as drawn.

`O=C(NC1CCCCC1)Oc1ccc(Cl)cc1C(=O)Nc1ccc(Cl)cc1`: the IC50 in series [1] is over 250 µM; in series [19] it was 33.6 µM. The selectivity ratio in series [2] is over 15.6. The Ratio in series [3] is over 250; in series [12], over 250; in series [17], over 125. Moreover, the MIC in [4] came out at 32 µM (≈ 13 µg/mL); in [5], 8 µM (≈ 3.26 µg/mL); in [6], 8 µM (≈ 3.26 µg/mL); in series [7], 32 µM (≈ 13 µg/mL); in series [8], 16 µM (≈ 6.52 µg/mL); in series [10], 1.56 µg/mL (≈ 3.83 µM). The MIC is 8 µM (≈ 3.26 µg/mL) in series [11]; 16 µM (≈ 6.52 µg/mL) in [13]; 16 µM (≈ 6.52 µg/mL) in [14]; 3.12 µg/mL in [15]; 16 µM (≈ 6.52 µg/mL) in [16]; 1.56 µg/mL (≈ 3.83 µM) in [18]. In series [20], this compound came in with an MIC of 16 µM (≈ 6.52 µg/mL). The inhibition in series [9] is 13%.

As for `O=C(NC12CC3CC(CC(C3)C1)C2)Oc1ccc(Cl)cc1C(=O)Nc1ccc(Cl)cc1`, the IC50 in [1] was 24 µM; in series [19] it was 8.15 µM. Further, in [2], the selectivity ratio stood at 1.5. Besides, the Ratio in series [3] is listed as over 250; in [12], over 250; in series [17], over 125. In addition, the MIC in [4] amounted to 16 µM (≈ 7.35 µg/mL); in [5] it was 16 µM (≈ 7.35 µg/mL); in series [6] it was 16 µM (≈ 7.35 µg/mL); in series [7], 16 µM (≈ 7.35 µg/mL); in series [8] it was 8 µM (≈ 3.67 µg/mL); in series [10], 3.91 µg/mL (≈ 8.51 µM). The MIC is 8 µM (≈ 3.67 µg/mL) in [11]; 16 µM (≈ 7.35 µg/mL) in series [13]; 16 µM (≈ 7.35 µg/mL) in series [14]; 3.12 µg/mL in series [15]; 16 µM (≈ 7.35 µg/mL) in series [16]; 3.91 µg/mL (≈ 8.51 µM) in series [18]. Also, 16 µM (≈ 7.35 µg/mL) was the least that counted as inhibitory in [20] (MIC). The inhibition in [9] amounted to 11%.

Regarding `O=C(NCCc1ccccc1)Oc1ccc(Cl)cc1C(=O)Nc1ccc(Br)cc1`, the figures for the IC50 in series [1] and in series [19] were over 50 µM and 2.2 µM, respectively. Besides, the selectivity ratio in series [2] is over 6.3. In addition, the Ratio is given as over 250 in [3], over 250 in series [12] and over 125 in series [17]. In addition, the MIC was determined as 8 µM (≈ 3.79 µg/mL) in series [4]; 8 µM (≈ 3.79 µg/mL) in series [5]; 8 µM (≈ 3.79 µg/mL) in series [6]; 8 µM (≈ 3.79 µg/mL) in [7]; 4 µM (≈ 1.9 µg/mL) in series [8]; 3.12 µg/mL (≈ 6.6 µM) in series [10]. For the same compound, the MIC in [11] is 4 µM (≈ 1.9 µg/mL); in series [13], 8 µM (≈ 3.79 µg/mL); in [14], 8 µM (≈ 3.79 µg/mL); in series [15] it was 1.65 µM; in series [16], 8 µM (≈ 3.79 µg/mL); in series [18], 1.56 µg/mL (≈ 3.29 µM). The compound also yielded an MIC in [20] of 8 µM (≈ 3.79 µg/mL). In series [9], the inhibition worked out at 17%.

As to `O=C(NCCc1ccccc1)Oc1ccc(Cl)cc1C(=O)Nc1ccc(F)cc1`, the figures for the IC50 in series [1] and in series [19] were 41.5 µM and 7.6 µM, respectively. Besides, the selectivity ratio in series [2] stood at 10.4. Also, the Ratio in [3] was over 250; in series [12], over 250; in series [17] it was over 125. Moreover, the MIC in [4] is 16 µM (≈ 6.61 µg/mL); in series [5] it was 16 µM (≈ 6.61 µg/mL); in series [6] it was 16 µM (≈ 6.61 µg/mL); in series [7], 16 µM (≈ 6.61 µg/mL); in series [8] it was 8 µM (≈ 3.3 µg/mL); in series [10], 3.12 µg/mL (≈ 7.57 µM). Besides, the minimal inhibitory concentration (MIC) stood at 8 µM (≈ 3.3 µg/mL) in series [11]; 4 µM (≈ 1.65 µg/mL) in [13]; 32 µM (≈ 13.2 µg/mL) in series [14]; 3.12 µg/mL in [15]; 32 µM (≈ 13.2 µg/mL) in series [16]; 3.12 µg/mL (≈ 7.57 µM) in series [18]. The compound also returned an MIC in series [20] of 4 µM (≈ 1.65 µg/mL). For the same compound, the inhibition in series [9] is 15%.

For the compound `O=C(NCCc1ccccc1)Oc1ccc(Cl)cc1`, the IC50 in [1] was over 125 µM; in series [19] it was over 250 µM. In addition, the selectivity ratio in series [2] is over 0.5. The MIC in series [4] amounted to 250 µM (≈ 68.9 µg/mL); in series [5], 250 µM (≈ 68.9 µg/mL); in series [6], 500 µM (≈ 138 µg/mL); in series [7] it was 500 µM (≈ 138 µg/mL); in series [8], 125 µM (≈ 34.5 µg/mL); in series [10] it was 62.5 µg/mL (≈ 227 µM). In addition, the MIC in [11] stood at 125 µM (≈ 34.5 µg/mL); in series [13], 250 µM (≈ 68.9 µg/mL); in series [14] it was 250 µM (≈ 68.9 µg/mL); in [15], 31.2 µg/mL; in [16] it was 500 µM (≈ 138 µg/mL); in series [18] it was 125 µg/mL (≈ 453 µM). In series [20], this compound yielded a minimal inhibitory concentration (MIC) of 250 µM (≈ 68.9 µg/mL). Moreover, in [9], the inhibition was 12%.

A word on the IC50: it is the concentration needed to halve the response being measured. By MIC is commonly meant the lowest concentration that inhibits growth of the organism. In general, inhibition refers to the share of the control response that was lost under treatment.
